Laboratory results as given in ChEMBL document CHEMBL3621115, “Discovery of 6-phenylimidazo[2,1-b]thiazole derivatives as a new type of FLT3 inhibitors” (Bioorg Med Chem Lett, 2015).

How the values were obtained:
[1] = target: Serine/threonine-protein kinase/endoribonuclease IRE1 (Homo sapiens, UniProt O75460); assay: Inhibition of human recombinant IRE1
[2] = target: Tyrosine-protein kinase JAK3 (Homo sapiens, UniProt P52333); assay: Inhibition of human recombinant JAK3
[3] = target: Tyrosine-protein kinase Lyn (Homo sapiens, UniProt P07948); assay: Inhibition of human recombinant Lyn
[4] = target: Serine/threonine-protein kinase PAK 1 (Homo sapiens, UniProt Q13153); assay: Inhibition of human recombinant PAK1
[5] = target: Serine/threonine-protein kinase D1 (Homo sapiens, UniProt Q15139); assay: Inhibition of human recombinant PKCmu
[6] = target: Serine/threonine-protein kinase PLK1 (Homo sapiens, UniProt P53350); assay: Inhibition of human recombinant Plk1
[7] = target: Ribosomal protein S6 kinase alpha-1 (Homo sapiens, UniProt Q15418); assay: Inhibition of human recombinant Rsk1
[8] = target: Tyrosine-protein kinase SYK (Homo sapiens, UniProt P43405); assay: Inhibition of human recombinant Syk
[9] = target: BDNF/NT-3 growth factors receptor (Homo sapiens, UniProt Q16620); assay: Inhibition of human recombinant TrkB
Sequence of BDNF/NT-3 growth factors receptor (Q16620 whole entry): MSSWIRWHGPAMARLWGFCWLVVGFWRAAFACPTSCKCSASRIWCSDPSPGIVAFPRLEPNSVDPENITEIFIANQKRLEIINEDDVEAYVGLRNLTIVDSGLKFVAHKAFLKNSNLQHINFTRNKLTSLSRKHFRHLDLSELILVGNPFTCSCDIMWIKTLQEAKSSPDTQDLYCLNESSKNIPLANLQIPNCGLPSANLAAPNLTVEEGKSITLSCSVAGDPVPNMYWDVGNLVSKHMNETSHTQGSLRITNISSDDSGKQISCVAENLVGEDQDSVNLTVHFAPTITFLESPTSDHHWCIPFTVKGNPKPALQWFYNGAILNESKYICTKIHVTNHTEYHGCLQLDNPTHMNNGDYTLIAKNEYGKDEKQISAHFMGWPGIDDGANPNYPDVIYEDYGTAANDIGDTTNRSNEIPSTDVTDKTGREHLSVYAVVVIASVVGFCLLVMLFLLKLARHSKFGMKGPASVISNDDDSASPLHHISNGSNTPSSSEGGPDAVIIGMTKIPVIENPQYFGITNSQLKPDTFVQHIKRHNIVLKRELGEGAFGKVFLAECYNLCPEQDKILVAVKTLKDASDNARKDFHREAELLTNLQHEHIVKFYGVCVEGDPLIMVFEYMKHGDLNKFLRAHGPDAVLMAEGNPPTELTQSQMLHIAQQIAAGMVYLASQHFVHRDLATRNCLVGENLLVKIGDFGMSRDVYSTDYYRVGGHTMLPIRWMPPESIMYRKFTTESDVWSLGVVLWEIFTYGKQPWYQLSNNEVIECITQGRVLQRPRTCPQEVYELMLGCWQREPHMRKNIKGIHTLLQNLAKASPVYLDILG

Jurkat = assay: Cytotoxicity against human Jurkat cells assessed as cell viability after 72 hrs by MTT assay; type: functional, cell-based
Raji = assay: Cytotoxicity against human Raji cells assessed as cell viability after 72 hrs by MTT assay; type: functional, cell-based
HCT-116 = assay: Cytotoxicity against human HCT116 cells assessed as cell viability after 72 hrs by MTT assay; type: functional, cell-based; conditions: HCT-116, 72 h
CWR22R = assay: Cytotoxicity against human 22Rv1 cells assessed as cell viability after 72 hrs by MTT assay; type: functional, cell-based; conditions: 22Rv1, 72 h
A-375 = assay: Cytotoxicity against human A375 cells assessed as cell viability after 72 hrs by MTT assay; type: functional, cell-based; conditions: A-375, 72 h
A2058 = assay: Cytotoxicity against human A2058 cells assessed as cell viability after 72 hrs by MTT assay; type: functional, cell-based; conditions: A2058, 72 h
MDA-MB-435 = assay: Cytotoxicity against human MDA-MB-435 cells assessed as cell viability after 72 hrs by MTT assay; type: functional, cell-based; conditions: MDA-MB-435, 72 h
MDA-MB-453 = assay: Cytotoxicity against human MDA-MB-453 cells assessed as cell viability after 72 hrs by MTT assay; type: functional, cell-based; conditions: MDA-MB-453, 72 h
[10] = Cytotoxicity against human Calu6 cells assessed as cell viability after 72 hrs by MTT assay; type: functional, cell-based; conditions: Calu-6, 72 h
[11] = Cytotoxicity against human KYSE-150 cells assessed as cell viability after 72 hrs by MTT assay; type: functional, cell-based; conditions: KYSE-150, 72 h
HepG2 = assay: Cytotoxicity against human HepG2 cells assessed as cell viability after 72 hrs by MTT assay; type: functional, cell-based; conditions: HepG2, 72 h
[12] = Cytotoxicity against human UM-UC-3 cells assessed as cell viability after 72 hrs by MTT assay; type: functional, cell-based; conditions: UMUC3, 72 h
[13] = target: T1, Receptor-type tyrosine-protein kinase FLT3 (Homo sapiens, UniProt P36888); assay: Inhibition of human recombinant Flt3
T1 sequence (P36888 whole entry): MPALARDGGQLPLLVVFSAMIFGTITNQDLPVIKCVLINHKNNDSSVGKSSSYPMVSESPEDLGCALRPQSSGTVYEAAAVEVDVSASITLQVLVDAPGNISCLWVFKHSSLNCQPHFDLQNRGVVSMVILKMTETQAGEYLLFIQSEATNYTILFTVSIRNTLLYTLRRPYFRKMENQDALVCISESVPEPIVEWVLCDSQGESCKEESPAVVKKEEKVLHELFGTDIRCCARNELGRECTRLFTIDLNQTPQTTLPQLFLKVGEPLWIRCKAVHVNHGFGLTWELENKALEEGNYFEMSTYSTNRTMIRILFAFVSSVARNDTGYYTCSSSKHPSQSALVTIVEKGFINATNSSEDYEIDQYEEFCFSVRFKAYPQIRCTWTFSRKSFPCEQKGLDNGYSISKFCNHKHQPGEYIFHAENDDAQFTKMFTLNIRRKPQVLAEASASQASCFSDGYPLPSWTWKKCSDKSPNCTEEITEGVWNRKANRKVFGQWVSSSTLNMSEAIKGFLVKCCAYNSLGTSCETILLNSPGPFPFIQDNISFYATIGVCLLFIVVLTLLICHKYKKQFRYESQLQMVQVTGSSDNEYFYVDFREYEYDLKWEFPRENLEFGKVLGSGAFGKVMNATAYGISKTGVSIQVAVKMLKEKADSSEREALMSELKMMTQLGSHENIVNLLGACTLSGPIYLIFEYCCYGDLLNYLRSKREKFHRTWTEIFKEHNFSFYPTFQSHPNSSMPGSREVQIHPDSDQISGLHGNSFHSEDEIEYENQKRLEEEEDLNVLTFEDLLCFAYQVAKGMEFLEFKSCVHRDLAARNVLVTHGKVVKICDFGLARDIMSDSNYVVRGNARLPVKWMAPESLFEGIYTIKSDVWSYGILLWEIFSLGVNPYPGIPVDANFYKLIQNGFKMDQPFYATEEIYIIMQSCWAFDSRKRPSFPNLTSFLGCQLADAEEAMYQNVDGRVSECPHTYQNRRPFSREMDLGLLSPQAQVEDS

[14] = target: Macrophage colony-stimulating factor 1 receptor (Homo sapiens, UniProt P07333); assay: Inhibition of human recombinant Fms
Sequence of Macrophage colony-stimulating factor 1 receptor (P07333 whole entry): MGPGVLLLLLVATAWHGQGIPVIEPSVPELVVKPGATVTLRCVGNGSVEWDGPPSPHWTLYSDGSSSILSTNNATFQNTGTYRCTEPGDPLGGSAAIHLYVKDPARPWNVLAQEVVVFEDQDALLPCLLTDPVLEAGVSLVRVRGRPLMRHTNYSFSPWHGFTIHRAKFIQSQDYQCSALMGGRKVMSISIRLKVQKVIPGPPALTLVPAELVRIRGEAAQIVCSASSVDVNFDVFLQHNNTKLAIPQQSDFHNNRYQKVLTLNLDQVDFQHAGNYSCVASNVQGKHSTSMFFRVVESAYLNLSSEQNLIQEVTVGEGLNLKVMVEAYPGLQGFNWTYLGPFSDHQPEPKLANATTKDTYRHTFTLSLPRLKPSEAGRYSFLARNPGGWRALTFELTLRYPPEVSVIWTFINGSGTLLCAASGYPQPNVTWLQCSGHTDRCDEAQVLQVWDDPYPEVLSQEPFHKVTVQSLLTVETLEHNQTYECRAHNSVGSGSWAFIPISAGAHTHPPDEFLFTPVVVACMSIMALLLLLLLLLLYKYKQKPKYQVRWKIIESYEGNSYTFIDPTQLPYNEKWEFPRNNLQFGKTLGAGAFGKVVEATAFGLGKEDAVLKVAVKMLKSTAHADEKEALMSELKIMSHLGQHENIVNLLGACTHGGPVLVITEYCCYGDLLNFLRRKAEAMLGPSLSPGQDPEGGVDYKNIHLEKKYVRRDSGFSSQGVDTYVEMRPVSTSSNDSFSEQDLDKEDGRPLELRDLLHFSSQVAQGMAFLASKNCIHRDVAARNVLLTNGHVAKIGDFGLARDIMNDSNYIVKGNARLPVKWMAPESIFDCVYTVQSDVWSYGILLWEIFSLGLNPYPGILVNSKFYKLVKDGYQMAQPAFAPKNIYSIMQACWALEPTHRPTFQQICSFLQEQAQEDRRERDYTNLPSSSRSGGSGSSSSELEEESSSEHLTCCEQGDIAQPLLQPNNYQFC

[15] = target: Serine/threonine-protein kinase pim-1 (Homo sapiens, UniProt P11309); assay: Inhibition of human recombinant Pim1
Sequence of Serine/threonine-protein kinase pim-1 (P11309 whole entry): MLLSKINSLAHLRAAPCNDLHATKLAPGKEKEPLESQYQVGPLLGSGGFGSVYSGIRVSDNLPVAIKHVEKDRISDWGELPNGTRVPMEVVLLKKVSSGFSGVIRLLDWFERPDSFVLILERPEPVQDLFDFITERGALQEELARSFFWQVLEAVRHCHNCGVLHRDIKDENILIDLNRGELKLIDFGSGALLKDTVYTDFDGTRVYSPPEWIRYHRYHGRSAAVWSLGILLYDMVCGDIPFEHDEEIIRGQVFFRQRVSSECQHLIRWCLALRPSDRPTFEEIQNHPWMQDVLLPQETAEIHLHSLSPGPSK

[16] = target: Tyrosine-protein kinase ABL2 (Homo sapiens, UniProt P42684); assay: Inhibition of human recombinant Arg
Sequence of Tyrosine-protein kinase ABL2 (P42684 whole entry): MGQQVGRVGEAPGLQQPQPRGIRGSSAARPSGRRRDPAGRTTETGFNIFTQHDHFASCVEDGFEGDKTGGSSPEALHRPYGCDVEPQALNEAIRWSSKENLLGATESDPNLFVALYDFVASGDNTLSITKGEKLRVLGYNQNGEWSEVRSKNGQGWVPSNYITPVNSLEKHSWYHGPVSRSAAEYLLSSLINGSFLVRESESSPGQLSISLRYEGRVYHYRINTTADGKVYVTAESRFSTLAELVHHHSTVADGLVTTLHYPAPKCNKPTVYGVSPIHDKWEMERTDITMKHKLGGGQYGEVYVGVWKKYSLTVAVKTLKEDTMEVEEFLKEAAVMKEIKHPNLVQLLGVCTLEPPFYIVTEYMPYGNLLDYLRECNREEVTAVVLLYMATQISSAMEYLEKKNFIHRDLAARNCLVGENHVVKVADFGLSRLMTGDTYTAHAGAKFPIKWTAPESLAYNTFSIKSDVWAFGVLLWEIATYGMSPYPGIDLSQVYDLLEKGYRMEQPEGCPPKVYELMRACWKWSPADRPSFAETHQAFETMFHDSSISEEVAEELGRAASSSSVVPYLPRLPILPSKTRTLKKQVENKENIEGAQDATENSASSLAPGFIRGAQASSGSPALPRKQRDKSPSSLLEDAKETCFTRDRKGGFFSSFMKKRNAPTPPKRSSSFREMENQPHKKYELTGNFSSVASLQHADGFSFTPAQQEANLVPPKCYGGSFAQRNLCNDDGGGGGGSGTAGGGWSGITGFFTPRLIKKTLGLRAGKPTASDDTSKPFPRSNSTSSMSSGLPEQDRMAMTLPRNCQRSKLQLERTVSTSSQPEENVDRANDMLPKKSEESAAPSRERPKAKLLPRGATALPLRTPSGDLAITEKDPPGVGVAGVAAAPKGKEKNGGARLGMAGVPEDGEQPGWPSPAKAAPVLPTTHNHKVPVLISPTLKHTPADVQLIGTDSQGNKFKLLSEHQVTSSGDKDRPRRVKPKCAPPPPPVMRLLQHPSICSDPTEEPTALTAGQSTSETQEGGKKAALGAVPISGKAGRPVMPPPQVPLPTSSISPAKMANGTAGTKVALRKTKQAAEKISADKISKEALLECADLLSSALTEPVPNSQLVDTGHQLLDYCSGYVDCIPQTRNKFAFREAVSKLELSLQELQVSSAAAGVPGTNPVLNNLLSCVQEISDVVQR

Aurora kinase B = Aurora kinase B (Homo sapiens, UniProt Q96GD4); assay: Inhibition of human recombinant Aurora-B
Sequence of Aurora kinase B (Q96GD4 whole entry): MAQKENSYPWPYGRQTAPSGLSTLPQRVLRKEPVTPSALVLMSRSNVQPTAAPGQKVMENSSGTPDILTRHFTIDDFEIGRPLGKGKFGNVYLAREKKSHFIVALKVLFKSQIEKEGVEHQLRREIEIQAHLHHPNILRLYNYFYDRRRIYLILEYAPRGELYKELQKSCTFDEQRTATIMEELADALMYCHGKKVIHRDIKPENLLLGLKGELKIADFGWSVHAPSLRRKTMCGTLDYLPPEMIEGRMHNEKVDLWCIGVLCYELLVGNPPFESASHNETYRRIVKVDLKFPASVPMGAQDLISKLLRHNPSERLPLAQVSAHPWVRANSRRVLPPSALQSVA

[17] = target: Tyrosine-protein kinase receptor UFO (Homo sapiens, UniProt P30530); assay: Inhibition of human recombinant Axl
[18] = target: Cytoplasmic tyrosine-protein kinase BMX (Homo sapiens, UniProt P51813); assay: Inhibition of human recombinant Bmx
[19] = target: Tyrosine-protein kinase BTK (Homo sapiens, UniProt Q06187); assay: Inhibition of human recombinant BTK
[20] = target: Cyclin-dependent kinase 2 (Homo sapiens, UniProt P24941); assay: Inhibition of human recombinant CDK2
[21] = target: Cyclin-dependent kinase 7 (Homo sapiens, UniProt P50613); assay: Inhibition of human recombinant CDK7
Myotonin-protein kinase = Myotonin-protein kinase (Homo sapiens, UniProt Q09013); assay: Inhibition of human recombinant DMPK
[22] = target: Epidermal growth factor receptor (Homo sapiens, UniProt P00533); assay: Inhibition of human recombinant EGFR
[23] = target: Receptor tyrosine-protein kinase erbB-2 (Homo sapiens, UniProt P04626); assay: Inhibition of human recombinant ErbB2
[24] = target: Tyrosine-protein kinase Fes/Fps (Homo sapiens, UniProt P07332); assay: Inhibition of human recombinant Fes
[25] = target: Glycogen synthase kinase-3 beta (Homo sapiens, UniProt P49841); assay: Inhibition of human recombinant GSK3beta

Sequence of Tyrosine-protein kinase JAK3 (P52333 whole entry): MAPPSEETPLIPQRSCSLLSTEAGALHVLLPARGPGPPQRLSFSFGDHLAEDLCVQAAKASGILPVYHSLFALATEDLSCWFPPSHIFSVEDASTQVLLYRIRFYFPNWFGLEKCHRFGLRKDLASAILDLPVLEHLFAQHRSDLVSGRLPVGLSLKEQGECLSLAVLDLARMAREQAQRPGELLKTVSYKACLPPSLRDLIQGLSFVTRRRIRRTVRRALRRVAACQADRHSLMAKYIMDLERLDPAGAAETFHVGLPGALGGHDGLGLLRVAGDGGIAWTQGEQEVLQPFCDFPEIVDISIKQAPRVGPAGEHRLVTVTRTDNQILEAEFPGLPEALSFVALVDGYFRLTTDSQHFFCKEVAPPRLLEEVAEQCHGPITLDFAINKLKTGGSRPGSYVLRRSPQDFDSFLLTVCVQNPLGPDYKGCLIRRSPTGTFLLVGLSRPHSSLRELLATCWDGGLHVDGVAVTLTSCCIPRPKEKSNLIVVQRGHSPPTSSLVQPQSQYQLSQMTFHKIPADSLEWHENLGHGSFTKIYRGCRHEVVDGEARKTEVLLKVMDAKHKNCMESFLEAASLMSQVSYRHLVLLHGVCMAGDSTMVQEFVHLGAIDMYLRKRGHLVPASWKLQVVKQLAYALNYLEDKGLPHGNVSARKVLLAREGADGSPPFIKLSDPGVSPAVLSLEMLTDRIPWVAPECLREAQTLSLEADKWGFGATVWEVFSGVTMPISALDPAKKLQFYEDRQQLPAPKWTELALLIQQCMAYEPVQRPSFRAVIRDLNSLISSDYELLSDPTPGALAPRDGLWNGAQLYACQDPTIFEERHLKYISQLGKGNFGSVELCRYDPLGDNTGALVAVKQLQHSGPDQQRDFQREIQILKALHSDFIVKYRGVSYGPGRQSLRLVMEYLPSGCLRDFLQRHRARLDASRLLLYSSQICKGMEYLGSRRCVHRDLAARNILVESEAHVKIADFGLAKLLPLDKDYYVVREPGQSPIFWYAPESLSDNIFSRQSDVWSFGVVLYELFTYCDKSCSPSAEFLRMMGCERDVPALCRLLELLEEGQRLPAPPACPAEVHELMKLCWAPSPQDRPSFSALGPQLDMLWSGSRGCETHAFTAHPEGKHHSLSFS

In the case of `CN(C)CCCNC(=O)c1csc2nc(-c3ccc(NC(=O)Nc4cc(C(C)(C)C)on4)cc3)cn12`, the IC50 [1] is reported as greater than 10 µM, the IC50 [2] is reported as greater than 10 µM and the IC50 [3] is reported as greater than 10 µM. For the same molecule, the IC50 [4] was greater than 10 µM, the IC50 [5] was greater than 10 µM and the IC50 [6] was greater than 10 µM. For the same molecule, the IC50 [7] was greater than 10 µM, the IC50 [8] was greater than 10 µM and the IC50 [9] was greater than 10 µM. For the same molecule, the IC50 (Jurkat) was 10 µM, the IC50 (Raji) was greater than 10 µM and the IC50 (HCT-116) was 10 µM. For the same molecule, the IC50 (CWR22R) was greater than 10 µM, the IC50 (A-375) was 10 µM and the IC50 (A2058) was 10 µM. It also gave an IC50 (MDA-MB-435) greater than 10 µM, an IC50 (MDA-MB-453) greater than 10 µM and an IC50 [10] of 10 µM. The IC50 [11] was greater than 10 µM, the IC50 (HepG2) was 10 µM and the IC50 [12] was 10 µM. For the same molecule, the IC50 [13] was 0.022 µM, the IC50 [14] was 0.043 µM and the IC50 [15] was 4.04 µM. It also gave an IC50 [16] greater than 10 µM, an IC50 (Aurora kinase B) greater than 10 µM and an IC50 [17] greater than 10 µM. For the same molecule, the IC50 [18] was greater than 10 µM, the IC50 [19] was greater than 10 µM and the IC50 [20] was greater than 10 µM. The IC50 [21] was greater than 10 µM, the IC50 (Myotonin-protein kinase) was greater than 10 µM and the IC50 [22] was greater than 10 µM. For the same molecule, the IC50 [23] was greater than 10 µM, the IC50 [24] was greater than 10 µM and the IC50 [25] was greater than 10 µM.
